Laboratory results from PubChem BioAssay AID721 (PCMD, 2007).
Activity calls are given as the source filed them. How the calls were made is not given here.

Target: Coagulation factor XI (Homo sapiens) (UniProt P03951)
Test: FXIa inhibitor IC50 values, dose response, biochemical, hits from single-well screen (AID 721)
Settings: purified factor XIa enzymatic assay, fluorescence

Coagulation factor XI (Homo sapiens), sequence (P03951 19-387 limits assumed): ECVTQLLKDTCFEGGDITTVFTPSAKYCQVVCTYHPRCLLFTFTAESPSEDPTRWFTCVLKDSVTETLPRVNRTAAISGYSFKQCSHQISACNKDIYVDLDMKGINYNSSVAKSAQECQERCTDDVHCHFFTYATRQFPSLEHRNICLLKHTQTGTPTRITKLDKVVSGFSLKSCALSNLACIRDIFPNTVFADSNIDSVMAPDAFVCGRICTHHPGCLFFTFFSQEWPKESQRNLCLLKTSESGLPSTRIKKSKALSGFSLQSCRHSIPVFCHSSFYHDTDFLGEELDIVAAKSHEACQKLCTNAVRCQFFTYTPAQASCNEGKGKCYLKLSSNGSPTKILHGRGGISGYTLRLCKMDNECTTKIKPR
Coagulation factor XI (Homo sapiens), sequence (P03951 388-625 limits assumed): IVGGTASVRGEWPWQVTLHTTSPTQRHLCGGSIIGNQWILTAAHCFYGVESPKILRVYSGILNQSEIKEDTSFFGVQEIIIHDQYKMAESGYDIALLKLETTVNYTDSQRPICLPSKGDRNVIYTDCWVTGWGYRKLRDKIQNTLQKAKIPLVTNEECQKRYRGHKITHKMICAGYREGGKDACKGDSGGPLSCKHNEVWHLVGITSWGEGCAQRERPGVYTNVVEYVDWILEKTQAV

Compound	IC50
CCn1nc(CC(=O)Nc2nnc(CC(=O)N3CCCC3)s2)c2ccccc2c1=O	> 50 µM (inactive)
CCC1(c2ccccc2)C(=O)N(C)C(=O)N(C)C1=O	> 50 µM (inactive)
Cc1cc(C)n2nc(C(=O)Nc3ccc4c(c3)OCO4)cc2n1	> 50 µM (inactive)
Cc1ccccc1C(=O)N=c1sccn1C	> 50 µM (inactive)
O=C(c1cn(-c2ccccc2)nc1-c1ccncc1)n1nnc2ccccc21	0.707 µM
COc1cc(OC)cc(-c2nnc(SCc3cccc(C(=O)O)c3)o2)c1	> 50 µM (inactive)
N#Cc1cc2c(nc1SCC(=O)Nc1sc3c(c1C#N)CCC3)CCC2	> 50 µM (inactive)
CCCN(CCC)C(C(=O)Nc1cccc(OC)c1)c1ccccc1 (stereo not given)	> 50 µM (inactive)
CCC1CC2CC(NC(C)=O)C1C2 (stereo not given)	0.588 µM
COc1cccc(C(=O)N(Cc2ccccc2)Cc2cc3cc4c(cc3[nH]c2=O)OCCO4)c1	10.4 µM
O=C(c1cccc2ccccc12)n1nnc2ccccc21	> 50 µM (inactive)
CCC(CO)NCc1ccc(OC2CCCC2)cc1 (stereo not given)	> 50 µM (inactive)
CCOC(=O)c1c(C)nc2c(c1C)c(=O)oc1ccccc12	> 50 µM (inactive)
CCc1ccc(CC2S/C(=C(\C#N)C(C)=O)NC2=O)cc1 (stereo not given)	> 50 µM (inactive)
O=c1c(-c2cc3ccccc3o2)[n+]([O-])c2ccccc2n1OCc1ccccn1	> 50 µM (inactive)
COCCN=C1Sc2nc3c(C)cccc3cc2CN1Cc1ccco1	0.745 µM
COc1cc(/C=c2\sc3n(c2=O)CCCN=3)ccc1O	> 50 µM (inactive)
COc1ccc(OCCSc2ncn[nH]2)cc1	> 50 µM (inactive)
CC(C)c1nc2ccc(NC(=O)C3CCCCC3)cc2[nH]1	> 50 µM (inactive)
CCOC(=O)c1cc2c(ccn2C)n1CC(=O)N1CCC(C)CC1	0.744 µM
O=S(=O)(Nc1cccc2nsnc12)c1ccccc1	9.3 µM
O=S(=O)(Cc1ccccc1)N1CCC(c2nc(-c3cccs3)no2)CC1	> 50 µM (inactive)
N#Cc1ccc(NC(=O)COC(=O)CNC(=O)C2CCCCC2)cc1	> 50 µM (inactive)
CCCC1CCc2c(sc(N)c2C(N)=O)C1 (stereo not given)	> 50 µM (inactive)
O=C(Oc1cccc(-n2cnnn2)c1)c1ccco1	4.06 µM

Compound	IC50
Cc1ccc(-c2csc(N3CCC(NS(=O)(=O)c4ccc5c(c4)OCCO5)CC3)n2)cc1	> 50 µM (inactive)
COc1ccc2c(=O)cc(-c3ccccc3)n(C)c2c1	> 50 µM (inactive)
CCOc1cc(S(=O)(=O)N(Cc2ccccc2)Cc2ccccc2)c(OCC)cc1-n1cnnn1	> 50 µM (inactive)
Cc1ccc(C(=O)n2nc(-c3cccnc3)nc2N)cc1	> 50 µM (inactive)
Cc1ccc(C(=O)n2nnc3ccccc32)cc1	2.39 µM
O=c1nc(-c2ccccc2)c2cc(Cl)ccc2[nH]1	> 50 µM (inactive)
OCCCn1c(-c2ccccc2)nc(=S)c2c1CCCC2	> 50 µM (inactive)
Cc1ccc(NC(=O)CCn2cccc2)cc1	> 50 µM (inactive)
CCOc1ccc(S(=O)(=O)NCc2ccc(OC)cc2)c2cccnc12	> 50 µM (inactive)
CN(CCOc1ccccc1)c1ccc(S(=O)(=O)N2CCCCC2)cn1	> 50 µM (inactive)
Cc1cnc(C(=O)OCC(=O)NCc2ccccc2)cn1	> 50 µM (inactive)
O=C(Nc1ccccc1C(=O)N1CCOCC1)c1ccc(F)cc1	21.4 µM
COC(=O)C(Cc1c[nH]c2ccccc12)NC(C)=O (stereo not given)	6.69 µM
Cc1c(O)ccc(C(=O)CN2C(=O)c3ccccc3C2=O)c1O	> 50 µM (inactive)
Cc1ccc(NS(=O)(=O)c2ccc(OCC(=O)N3CCOCC3)cc2)cc1	> 50 µM (inactive)
COC(=O)c1[nH]c2ccc(Br)cc2c1NC(=O)CN1CCCc2ccccc21	> 50 µM (inactive)
COc1ccccc1-n1cnnc1SCC(=O)Nc1nc(C)c(Cl)cc1Cl	10.2 µM
O=C(NC(C(=O)c1ccccc1)n1c(=O)cc[nH]c1=S)c1ccccc1 (stereo not given)	> 50 µM (inactive)
COC(=O)CSc1nnc(C)n1-c1cccc(OC)c1	2.36 µM
O=C(CCCN1C(=O)c2ccccc2C1=O)NCC1CCCO1 (stereo not given)	14.6 µM
COc1ccc(CC(=O)NCc2ccc3c(c2)OCO3)cc1	> 50 µM (inactive)
O=C(Oc1ccc2c(=O)c(Cl)coc2c1)c1cccnc1	> 50 µM (inactive)
C=CCn1c(=O)c2c(nc(Br)n2Cc2ccccc2Cl)n(C)c1=O	0.638 µM
CCOC(=O)c1c(C)n(Cc2ccccc2)c2ccc(OCC(O)Cn3nc(C)cc3C)cc12 (stereo not given)	> 50 µM (inactive)
O=C(c1ccc(F)cc1)N1CCN(C(=O)c2cccnc2)CC1	> 50 µM (inactive)

Compound	IC50
Cc1cc(=O)[nH]c(-n2[nH]c(C)cc2=O)n1	> 50 µM (inactive)
Cc1cc(NC(=O)COC(=O)c2c(C)nn(Cc3ccccc3)c2C)no1	> 50 µM (inactive)
CCCc1nc2ccccc2c(=O)n1-c1ccc(OC)cc1	> 50 µM (inactive)
COC(=O)c1sc(NC(=O)CC(C)C)c(C(=O)OC)c1C	> 50 µM (inactive)
CCOc1cccc2cc(C(N)=O)c(=NCc3ccccc3)oc12	> 50 µM (inactive)
COc1ccc(S(=O)(=O)N2CCC(C(=O)N3CCc4ccccc4C3)CC2)cc1Cl	6.26 µM
CCCC(=O)n1nc(-c2ccccc2)nc1SC	> 50 µM (inactive)
O=C(NCc1ccccc1)C1CCCN(S(=O)(=O)c2cccc3nonc23)C1 (stereo not given)	> 50 µM (inactive)
CCc1c(O)nc(SCC(=O)NC(C)(C)C)n(-c2ccccc2)c1=O	> 50 µM (inactive)
Cc1ccc(N(C(=O)c2ccccn2)C2(C(=O)NC3CCCC3)CCCCC2)cc1	> 50 µM (inactive)
COc1cc(OC)c2c(N)c(C#N)c(C(F)(F)C(F)(F)F)nc2c1	> 50 µM (inactive)
CCc1ccc(NC(=O)Cn2nc(C(F)(F)F)c3c2CCC3)cc1	> 50 µM (inactive)
CCn1c(SCC(=O)c2[nH]c(C)c(C(C)=O)c2C)nnc1-c1ccccc1	7.44 µM
Cn1nnnc1SCC(=O)N(C1CCCCC1)C1CCCCC1	> 50 µM (inactive)
Cc1c(NC(=O)c2cc3ccccc3o2)c(=O)n(-c2ccccc2)n1C	> 50 µM (inactive)
O=c1cccc2n1CC1CC2CN(S(=O)(=O)c2ccccc2)C1 (stereo not given)	> 50 µM (inactive)
Cn1c(SCC(=O)NC2CCCCC2)nnc1-c1cccc(N)c1	> 50 µM (inactive)
COc1ccc(OCC(=O)Nc2cc(-c3nn(C)c(=O)c4ccccc34)ccc2OC)cc1	> 50 µM (inactive)
Cc1cccc(NC(=O)c2snc3c(=O)[nH]cnc23)c1	> 50 µM (inactive)
CCOC(=O)N=S(=O)(Oc1ccc([N+](=O)[O-])cc1)c1ccccc1 (stereo not given)	> 50 µM (inactive)
O=C(CCSc1nnc2ccc3ccccc3n12)Nc1ccc(F)cc1	> 50 µM (inactive)
CNCCCc1ccccc1	> 50 µM (inactive)
CCN(CC)CCNC(=O)C(C)c1nn(C)c(=O)c2ccccc12 (stereo not given)	> 50 µM (inactive)
COc1ccc(Cn2nnnc2C(c2ccccc2Cl)N2CCC(C(N)=O)CC2)cc1 (stereo not given)	> 50 µM (inactive)
CNC(=O)COC(=O)c1[nH]c(C)c(C(C)=O)c1C	> 50 µM (inactive)
